Laboratory results from publication PMC9598469, “Analysis of Antioxidant Constituents from Ilex rotunda and Evaluation of Their Blood–Brain Barrier Permeability” (Antioxidants, 2022).
Where two headings read alike, the source gives them in different places.

How the values were obtained:
[1] = HPLC-DPPH screening: peak area reduction in I. rotunda twig extract; type: biochemical; conditions: between DPPH treated and untreated samples in the I. rotunda extract, untreated = 100%
Protocol: (§1) An amount of 100 μL of the I. rotunda extract (1.3 mg/mL) dissolved in methanol and 100 μL of the DPPH solution (1.2 mg/mL in methanol) were mixed and incubated for 30 min at 37 °C, protected from light. After that, the mixture was filtered through a 0.22 μm filter for HPLC analysis. The control sample was prepared by mixing 100 μL methanol with 100 μL of the extract. Both mixtures were analyzed using the same established analytical methods. The outflow was monitored at 254 and 326 nm wavelength. […] The ELISA assay was performed by following procedure. A 100 μL of DPPH solution (0.2 mM) was added to 100 μL of the sample on a 96-well plate, mixed for 5 s, and reacted for 30 min under shade. The absorbance was measured at 517 nm using a microplate spectrophotometer (Epoch, Biotek Instruments, Inc., Winooski, VT, USA). […] Ascorbic acid (100 μg/mL) (Sigma–Aldrich, Co., St. Louis, MO, USA) was used as the positive control.

[2] = Parallel artificial membrane permeability assay for the blood–brain barrier (PAMPA-BBB); type: in vitro ADME; conditions: for Cross BBB Potential: single compounds at 10 mM, classification based on Könczöl et al.; for Papp at 4 h, 1 mM: single compounds at concentration of 10 mM (stock), read-out: BBB Permeability log Pe (converted)
Protocol: The PAMPA-BBB experiment was carried out according to the study by Könczöl et al.. A slightly modified version of the PAMPA-BBB was used to assess effective permeability (Pe, cm/s) of compounds of I. rotunda. Briefly, 20 μL of stock solution of I. rotunda extract (10 mg/mL in MeOH) or test compound (10 mM in MeOH) was mixed with 180 μL of phosphate buffered saline (PBS, pH 7.4, 10 mM) to obtain the starting donor solution. Subsequently, the filter membrane of the donor (top) plate (96-well polycarbonate-based filter plate, Multiscreen-IP, MAIPTR10, pore size 0.45 μm, Milipore) was coated with 5 μL of porcine polar brain lipid extract (PBLE) solution (16.0 mg PBLE + 8.0 mg cholesterol dissolved in 600.0 μL n-dodecane). Then, 150.0 μL of the filtrate was placed on the membrane. The bottom (acceptor) plate (96-well microtiter plate, Multiscreen®, MATRNPS50, Milipore) was filled with 300.0 μL buffer solution (PBS, pH 7.4, 10 mM). The donor plate was carefully located on the acceptor plate to form a “sandwich”. It was incubated at 37 °C for 4 h without direct right exposure. After incubation, PAMPA plates were separated. Concentrations of identified compounds of I. rotunda in the starting donor solution and in acceptor and donor wells were determined in triplicate based on chromatographic peak areas derived from the same established analytical methods. […] Pe=−ln1−CA(t)/Cequilibrium /A×1/VD1/VA×t where Pe is permeability in cm s^−1. A = effective filter area = f × 0.3 cm^2; VD = donor well volume = 150 μL; VA = acceptor well volume = 300 μL; t = incubation time (s) = 14,400; CA(t) = compound concentration in the acceptor well at time t; and CD(t) = compound concentration in the donor well at time t. Cequilibrium is calculated as follows: Cequilibrium=CD(t)×VD+CA(t)×VA/VD+VA

[3] = DPPH method on ELISA (96-well microplate) for isolated compounds; type: biochemical; conditions: compounds 2.5 to 40 μM, 30 min, 517 nm; read-out: EC50 Values (μM), DPPH radical
Protocol: The radical scavenging effect of 2,2-diphenyl-1-picrylhydrazyl (DPPH; Thermo Fisher Scientific, Ward Hill, MA, USA) was measured using our previous method. Briefly, 0.1 mL of each sample solution (dissolved in EtOH) was mixed with 0.1 mL of 0.2 mM DPPH and allowed to stand at RT for 30 min under shade. The absorbance at 517 nm was measured using a microplate spectrophotometer (Epoch, Biotek Instruments, Inc., Winooski, VT, USA). Ascorbic acid (100 μg/mL) (Sigma–Aldrich, Co., St. Louis, MO, USA) was used as a positive control. The percentage of DPPH reduction between the treated sample and negative control well was calculated with the following formula: %EC = (A control − A sample) * 100/(A control), where A sample was the absorbance of the sample and A control was the absorbance of untreated sample. Results are indicated as EC50, which correspond to the sample concentration (μg/mL) required to inhibition by 50% of the initial DPPH radical scavenging activity under the given experimental conditions.
as §1

[4] = parameters: method as in PMID 23565574; conditions: cited from earlier work
[5] = I. rotunda extract test, t = 14,400 s

EC50 [3]	SMILES	Reduction of the Peak Area (%) [1]	Cross BBB Potential [2]	other results
–	O=C(C=Cc1ccc(O)c(O)c1)OC1CC(O)(C(=O)O)CC(O)C1OC(=O)C=Cc1ccc(O)c(O)c1 (stereo not drawn) [Compound 5, 3,4-Dicaffeoylquinic acid]	45.24 ± 0.67%	- (not detected in acceptor or log Pe < −6.0)	–
22.6 ± 0.77 µM	O=C1O[C@H]([C@@H](O)CO)C(O)=C1O [Ascorbic acid, reference compound]	–	–	–
–	O=C(O)/C=C/c1ccc(O)c(O)c1 [caffeic acid, reference compound]	–	- (not detected in acceptor or log Pe < −6.0)	Papp at 4 h, 1 mM ([2]; PAMPA, pH 7.4, 37 °C, 4 h): 0.000832 ×10⁻⁶ cm/s
–	C[C@@H]1O[C@@H](OC[C@H]2O[C@@H](Oc3c(-c4ccc(O)c(O)c4)oc4cc(O)cc(O)c4c3=O)[C@H](O)[C@@H](O)[C@@H]2O)[C@H](O)[C@H](O)[C@H]1O [Compound 3, Rutin]	21.45 ± 0.90%	- (not detected in acceptor or log Pe < −6.0)	BBB permeability (in words) [4]: poor permeability
13.8 ± 0.24 µM	O=C(/C=C/c1ccc(O)c(O)c1)O[C@@H]1[C@H](O)C[C@@](O)(C(=O)O)C[C@H]1OC(=O)/C=C/c1ccc(O)c(O)c1 [Compound 7, 4,5-Dicaffeoylquinic acid]	83.67%	+ (log Pe > −6.0)	Reduction of the Peak Area (%) ([1]; listed as 4,5-dicaffeoylquinic acid (7)): 83.67 ± 0.19%; Concentration of acceptor solution CA(t) [2, 5]: 6.62 µg/mL; Concentration of donor solution CD(t) [2, 5]: 287.86 µg/mL; BBB permeability (in words) ([2]; PAMPA-BBB, extract and 10 mM tests): moderate BBB permeability; Papp at 4 h, 1 mg/mL extract ([2]; PAMPA, compound within I. rotunda extract (10 mg/mL stock), pH 7.4, 37 °C, 4 h, read-out: BBB permeability log Pe (converted)): 1.58 ×10⁻⁶ cm/s; Papp at 4 h, 1 mM ([2]; PAMPA, pH 7.4, 37 °C, 4 h): 1.41 ×10⁻⁶ cm/s
–	COc1cc(/C=C/CO)cc(OC)c1O[C@@H]1O[C@H](CO)[C@@H](O)[C@H](O)[C@H]1O [Compound 1, Syringin]	6.98 ± 0.44%	- (not detected in acceptor or log Pe < −6.0)	–
10.9 ± 0.14 µM	O=C(/C=C/c1ccc(O)c(O)c1)O[C@@H]1C[C@](O)(C(=O)O)C[C@@H](OC(=O)/C=C/c2ccc(O)c(O)c2)[C@H]1OC(=O)/C=C/c1ccc(O)c(O)c1 [Compound 8, 3,4,5-Tricaffeoylquinic acid]	67.25%	- (not detected in acceptor or log Pe < −6.0)	Reduction of the Peak Area (%) ([1]; listed as 3,4,5-tricaffeoylquinic acid (8)): 67.25 ± 1.00%
–	O=C(/C=C/c1ccc(O)c(O)c1)O[C@@H]1C[C@](O)(C(=O)O)C[C@@H](O)[C@H]1O [Compound 2, Chlorogenic acid]	–	- (not detected in acceptor or log Pe < −6.0)	BBB permeability (in words) [4]: poor permeability
–	CC(=CCOC1OC(CO)C(O)C(O)C1O)COC(=O)C=Cc1ccc(O)c(O)c1 (stereo not drawn) [Compound 4, Rotundarpenoside B]	18.99 ± 0.90%	- (not detected in acceptor or log Pe < −6.0)	–
10.88 ± 0.04 µM	O=C(/C=C/c1ccc(O)c(O)c1)O[C@@H]1C[C@](O)(C(=O)O)C[C@@H](OC(=O)/C=C/c2ccc(O)c(O)c2)[C@H]1O [Compound 6, 3,5-Dicaffeoylquinic acid]	58.88%	- (not detected in acceptor or log Pe < −6.0)	Reduction of the Peak Area (%) ([1]; listed as 3,5-dicaffeoylquinic acid (6)): 58.88 ± 0.44%
–	O=c1ccc2ccccc2o1 [coumarin, reference compound]	–	++ (log Pe > −5.0)	Papp at 4 h, 1 mM ([2]; PAMPA, pH 7.4, 37 °C, 4 h): 28.8 ×10⁻⁶ cm/s
